Results taken from paper PMC4863226 (Molecular imaging, 2015).
Where a SMILES comes first, the peptide text is derived from it. Bridges are numbered along the chain shown (N, C = ends). The star is where a group is joined. DOTA = O=C(O)CN1CCN(CC(=O)O)CCN(CC(=O)*)CCN(CC(=O)O)CC1; NOTA = O=C(O)CN1CCN(CC(=O)O)CCN(CC(=O)*)CC1; X1 = O=[N+]([O-])c1cc([N+](=O)[O-])c(*)cc1F; PEG4 = NCCOCCOCCOCCOCCC(=O)O

Columns and labels:
[1] = system: HCT-116 tumor bearing mice; experiment: Biodistribution; settings: for Bone uptake / Brain uptake / Fat uptake / Heart uptake / Kidney uptake / L lg int (lower large intestine) uptake / Liver uptake / Lung uptake / Muscle uptake / Sm int (small intestine) uptake / Spleen uptake / Stomach uptake / U lg int (upper large intestine) uptake: HCT-116 tumor bearing mice; for Bone uptake / Brain uptake / Fat uptake / Heart uptake / Kidney uptake / L lg int (lower large intestine) uptake / Liver uptake / Lung uptake / Muscle uptake / Sm int (small intestine) uptake / Spleen uptake / Stomach uptake / U lg int (upper large intestine) uptake / Tumor uptake: gamma counter; for Bone uptake / Brain uptake / Fat uptake / Heart uptake / Kidney uptake / L lg int (lower large intestine) uptake / Liver uptake / Lung uptake / Muscle uptake / Sm int (small intestine) uptake / Spleen uptake / Stomach uptake / U lg int (upper large intestine) uptake / Tumor uptake / Tumor-to-blood ratio: mean ± SD; for Tumor uptake: HCT-116 tumor xenograft; for Tumor uptake / Tumor-to-blood ratio: mice; for Tumor-to-blood ratio: HCT-116 tumor xenografts
[2] = in vivo; settings: female, athymic Nu/Nu, mouse, 3.7 MBq, total radioactivity
[3] = Sm int (small intestine) uptake

[Cl][55Co][Cl] [^55CoCl2]
Bone uptake ([1]; 2 hr p.i.): 1.3 ± 0.2 %ID/g
Brain uptake ([1]; 2 hr p.i.): 0.31 ± 0.02 %ID/g
Fat uptake ([1]; 2 hr p.i.): 1.5 ± 0.9 %ID/g
Heart uptake ([1]; 2 hr p.i.): 4.8 ± 0.4 %ID/g
Kidney uptake ([1]; 2 hr p.i.): 10.5 ± 1.4 %ID/g
L lg int (lower large intestine) uptake ([1]; 2 hr p.i.): 1.9 ± 1.0 %ID/g
Liver uptake ([1]; 2 hr p.i.): 15.7 ± 0.4 %ID/g
Lung uptake ([1]; 2 hr p.i.): 4.0 ± 0.3 %ID/g
Muscle uptake ([1]; 2 hr p.i.): 0.6 ± 0.1 %ID/g
Sm int (small intestine) uptake ([1]; 2 hr p.i.): 3.6 ± 0.6 %ID/g
Spleen uptake ([1]; 2 hr p.i.): 1.9 ± 0.4 %ID/g
Stomach uptake ([1]; 2 hr p.i.): 1.1 ± 0.1 %ID/g
U lg int (upper large intestine) uptake ([1]; 2 hr p.i.): 4.3 ± 0.8 %ID/g
Tumor uptake ([1]; 2 hr p.i.): 2.8 ± 0.6 %ID/g
Tumor-to-blood ratio ([1]; 2 hrs p.i.): 0.6 ± 0.1
Bone uptake ([1]; 24 hr p.i., n=3): 0.8 ± 0.1 %ID/g
Brain uptake ([1]; 24 hr p.i., n=3): 0.17 ± 0.03 %ID/g
Fat uptake ([1]; 24 hr p.i., n=3): 0.7 ± 0.4 %ID/g
Heart uptake ([1]; 24 hr p.i., n=3): 2.8 ± 0.7 %ID/g
Kidney uptake ([1]; 24 hr p.i., n=3): 4.4 ± 0.4 %ID/g
L lg int (lower large intestine) uptake ([1]; 24 hr p.i., n=3): 2.2 ± 0.3 %ID/g
Liver uptake ([1]; 24 hr p.i., n=3): 6.2 ± 0.8 %ID/g
Lung uptake ([1]; 24 hr p.i., n=3): 1.9 ± 0.1 %ID/g
Muscle uptake ([1]; 24 hr p.i., n=3): 0.37 ± 0.08 %ID/g
Sm int (small intestine) uptake ([1]; 24 hr p.i., n=3): 1.1 ± 0.2 %ID/g
Spleen uptake ([1]; 24 hr p.i., n=3): 0.82 ± 0.05 %ID/g
Stomach uptake ([1]; 24 hr p.i., n=3): 1.0 ± 0.2 %ID/g
U lg int (upper large intestine) uptake ([1]; 24 hr p.i., n=3): 1.5 ± 0.1 %ID/g
Tumor uptake ([1]; 24 hr p.i., n=3): 1.6 ± 0.2 %ID/g
Bone uptake ([1]; 48 hr p.i., n=3): 0.5 ± 0.1 %ID/g
Brain uptake ([1]; 48 hr p.i., n=3): 0.11 ± 0.01 %ID/g
Fat uptake ([1]; 48 hr p.i., n=3): 0.23 ± 0.05 %ID/g
Heart uptake ([1]; 48 hr p.i., n=3): 1.4 ± 0.2 %ID/g
Kidney uptake ([1]; 48 hr p.i., n=3): 1.9 ± 0.2 %ID/g
L lg int (lower large intestine) uptake ([1]; 48 hr p.i., n=3): 1.2 ± 0.2 %ID/g
Liver uptake ([1]; 48 hr p.i., n=3): 2.7 ± 0.7 %ID/g
Lung uptake ([1]; 48 hr p.i., n=3): 0.98 ± 0.09 %ID/g
Muscle uptake ([1]; 48 hr p.i., n=3): 0.17 ± 0.03 %ID/g
Sm int (small intestine) uptake ([1]; 48 hr p.i., n=3): 0.50 ± 0.04 %ID/g
Spleen uptake ([1]; 48 hr p.i., n=3): 0.46 ± 0.04 %ID/g
Stomach uptake ([1]; 48 hr p.i., n=3): 0.5 ± 0.1 %ID/g
U lg int (upper large intestine) uptake ([1]; 48 hr p.i., n=3): 0.7 ± 0.1 %ID/g
Tumor uptake ([1]; 48 hr p.i., n=3): 0.86 ± 0.08 %ID/g
Tumor-to-blood ratio ([1]; 48 hrs p.i., P=0.006 vs 2 hrs): 1.9 ± 0.4
Consecutive decrease in liver and kidney uptake ([1]; at 24 and 48 hrs p.i. after high uptake at 2 hrs p.i.): about 2 fold
Increase of tumor-to-blood ratio ([1]; from 2 to 48 hrs p.i.): 3 fold

CC[C@H](C)[C@@H]1NC(=O)[C@H](CC(=O)O)NC(=O)[C@@H](NC(=O)[C@H](CCC(=O)O)NC(=O)[C@H](CC(N)=O)NC(=O)CNC(=O)CNC(=O)CCOCCOCCOCCOCCNC(=O)CN2CCN(CC(=O)O)CCN(CC(=O)O)CC2)CSSC[C@@H](C(=O)N[C@@H](Cc2ccccc2)C(=O)N[C@@H](CCC(=O)O)C(=O)N[C@@H](CCCNC(=N)N)C(=O)N[C@@H](CCCCNc2cc(F)c([N+](=O)[O-])cc2[N+](=O)[O-])C(N)=O)NC(=O)[C@H](CCC(=O)O)NC(=O)[C@H](Cc2c[nH]c3ccccc23)NC(=O)[C@H](CCC(=O)O)NC(=O)[C@H](Cc2c[nH]c3ccccc23)NC(=O)[C@H](CCSC)NC(=O)[C@H](CCCNC(=N)N)NC(=O)[C@H](C)NC1=O [^55Co-NO2A-L19K-FDNB] ({NOTA-PEG4}-GGNECDIARMWEWECFERK(X1)-NH2; disulfide 5-15)
tissue uptake at 24 h ([2]; Bone uptake): 0.28 ± 0.04 %ID/g
tissue uptake at 48 h ([2]; Bone uptake): 0.14 ± 0.02 %ID/g
tissue uptake at 24 h ([2]; Fat uptake): 0.8 ± 0.4 %ID/g
tissue uptake at 48 h ([2]; Fat uptake): 0.3 ± 0.1 %ID/g
tissue uptake at 24 h ([2]; Liver uptake): 1 ± 0.1 %ID/g
tissue uptake at 48 h ([2]; Liver uptake): 0.44 ± 0.03 %ID/g
tissue uptake at 24 h ([2]; Lung uptake): 0.9 ± 0.1 %ID/g
tissue uptake at 48 h ([2]; Lung uptake): 0.46 ± 0.06 %ID/g
tissue uptake at 24 h [2, 3]: 0.26 ± 0.01 %ID/g
tissue uptake at 48 h [2, 3]: 0.14 ± 0.04 %ID/g
tissue uptake at 24 h ([2]; Tumor uptake): 0.9 ± 0.1 %ID/g
tissue uptake at 48 h ([2]; Tumor uptake): 0.49 ± 0.09 %ID/g

CC[C@H](C)[C@@H]1NC(=O)[C@H](CC(=O)O)NC(=O)[C@@H](NC(=O)[C@H](CCC(=O)O)NC(=O)[C@H](CC(N)=O)NC(=O)CNC(=O)CNC(=O)CCOCCOCCOCCOCCNC(=O)CN2CCN(CC(=O)O)CCN(CC(=O)O)CCN(CC(=O)O)CC2)CSSC[C@@H](C(=O)N[C@@H](Cc2ccccc2)C(=O)N[C@@H](CCC(=O)O)C(=O)N[C@@H](CCCNC(=N)N)C(=O)N[C@@H](CCCCNc2cc(F)c([N+](=O)[O-])cc2[N+](=O)[O-])C(N)=O)NC(=O)[C@H](CCC(=O)O)NC(=O)[C@H](Cc2c[nH]c3ccccc23)NC(=O)[C@H](CCC(=O)O)NC(=O)[C@H](Cc2c[nH]c3ccccc23)NC(=O)[C@H](CCSC)NC(=O)[C@H](CCCNC(=N)N)NC(=O)[C@H](C)NC1=O [^55Co-DO3A-L19K-FDNB] ({DOTA-PEG4}-GGNECDIARMWEWECFERK(X1)-NH2; disulfide 5-15)
tissue uptake at 24 h ([2]; Bone uptake): 0.3 ± 0.04 %ID/g
tissue uptake at 48 h ([2]; Bone uptake): 0.26 ± 0.05 %ID/g
tissue uptake at 24 h ([2]; Fat uptake): 0.4 ± 0.1 %ID/g
tissue uptake at 48 h ([2]; Fat uptake): 0.3 ± 0.03 %ID/g
tissue uptake at 24 h ([2]; Liver uptake): 1.1 ± 0.2 %ID/g
tissue uptake at 48 h ([2]; Liver uptake): 0.7 ± 0.1 %ID/g
tissue uptake at 24 h ([2]; Lung uptake): 0.8 ± 0.1 %ID/g
tissue uptake at 48 h ([2]; Lung uptake): 0.56 ± 0.03 %ID/g
tissue uptake at 24 h [2, 3]: 0.31 ± 0.04 %ID/g
tissue uptake at 48 h [2, 3]: 0.19 ± 0.03 %ID/g
tissue uptake at 24 h ([2]; Tumor uptake): 1.1 ± 0.2 %ID/g
tissue uptake at 48 h ([2]; Tumor uptake): 0.71 ± 0.03 %ID/g
